Test system: HCV 1b-377-neo replicon cells
Assay: HCV replicon assay, HCV 1b-377-neo replicon cells (1b FRET)
Assay type: cell-based, Hepatitis C virus genotype 1b
Conditions: HCV 1b-377-neo replicon cells; HCV 1b genotype; read-out: EC50 range against HCV 1b (Table 2, Range)
Summary of the method: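 Compounds were tested in genotype 1b subgenomic replicon cells carrying a neomycin marker, alongside a matched replicon line with an NS5A Y2065H substitution that confers resistance to a reference NS5A inhibitor.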

Compared with `COC(=O)N[C@H](C(=O)N1CCC[C@H]1c1ncc(-c2ccc(-c3ccc(-c4cnc([C@@H]5CCCN5C(=O)CC(C)C)[nH]4)cc3)cc2)[nH]1)C(C)C` [Example M81, methyl ((1S)-2-methyl-1-(((2S)-2-(5-(4′-(2-((2S)-1-(3-methylbutanoyl)-2-pyrrolidinyl)-1H-imidazol-5-yl)-4-biphenylyl)-1H-imidazol-2-yl)-1-pyrrolidinyl)carbonyl)propyl) carbamate], `CN(C)[C@@H](C(=O)N1CCC[C@H]1c1nc(-c2ccc(-c3ccc(-c4cn(C)c([C@@H]5CCCN5C(=O)[C@@H](c5ccccc5)N(C)C)n4)cc3)cc2)cn1C)c1ccccc1` (single isomer, unassigned) [151 isomer 1] is lower in EC50: 100 to 999 nM for the first, 1 to 99 nM for the second.

Same assay, conditions: Hepatitis C virus, HCV 1b-377-neo replicon cells; HCV 1b genotype; read-out: EC50 range against HCV 1b (Table 2, Range)

Compared with `CCN(CC)[C@H]1CC[C@@H](C(=O)N2CCC[C@H]2c2ncc(-c3ccc(-c4ccc(-c5cnc([C@@H]6CCCN6C(=O)[C@H](C)NC(=O)OC)[nH]5)cc4)cc3)[nH]2)CC1` [cj-74, methyl ((1S)-2-((2S)-2-(5-(4′-(2-((2S)-1-((cis-4-(diethylamino)cyclohexyl)carbonyl)-2-pyrrolidinyl)-1H-imidazol-5-yl)-4-biphenylyl)-1H-imidazol-2-yl)-1-pyrrolidinyl)-1-methyl-2-oxoethyl)carbamate], `CNCC(=O)N1CCC[C@H]1c1ncc(-c2ccc(-c3ccc(-c4cnc([C@@H]5CCCN5C(=O)[C@@H](NC(=O)OC)C(C)C)[nH]4)cc3)cc2)[nH]1` [LS20, methyl ((1S)-2-methyl-1-(((2S)-2-(5-(4′-(2-((2S)-1-(N-methylglycyl)-2-pyrrolidinyl)-1H-imidazol-5-yl)-4-biphenylyl)-1H-imidazol-2-yl)-1-pyrrolidinyl)carbonyl)propyl)carbamate] is lower in EC50: 1 to 99 nM for the first, 0.001 to 0.999 nM for the second. The second is the more potent here.

`COC(=O)N[C@@H](C(=O)N1CCC[C@H]1c1ncc(-c2ccc(-c3ccc(-c4cnc([C@@H]5CCCN5C(=O)[C@H](c5ccccc5)N(C)C)[nH]4)cc3)cc2)[nH]1)c1ccccc1` [Example 38, methyl ((1R)-2-((2S)-2-(5-(4′-(2-((2S)-1-((2S)-2-(dimethylamino)-2-phenylacetyl)-2-pyrrolidinyl)-1H-imidazol-5-yl)-4-biphenylyl)-1H-imidazol-2-yl)-1-pyrrolidinyl)-2-oxo-1-phenylethyl)carbamate] and `COC(=O)N[C@@H](C(=O)N1CCC[C@H]1c1ncc(-c2ccc(-c3ccc(-c4cnc([C@@H]5CCCN5C(=O)C(c5ccccn5)N(C)C)[nH]4)cc3)cc2)[nH]1)c1ccccc1` (stereo partly drawn) [Example 84-61, methyl ((1R)-2-((2S)-2-(5-(4′-(2-((2S)-1-((dimethylamino)(2-pyridinyl)acetyl)-2-pyrrolidinyl)-1H-imidazol-5-yl)-4-biphenylyl)-1H-imidazol-2-yl)-1-pyrrolidinyl)-2-oxo-1-phenylethyl)carbamate] fall in the same range of EC50: 0.001 to 0.999 nM for the first, 0.001 to 0.999 nM for the second.

`COC(=O)N[C@@H](C)C(=O)N1CCC[C@H]1c1ncc(-c2ccc(-c3ccc(-c4cnc([C@@H]5CCCN5[C@@](C)(C=O)NC(=O)OC)[nH]4)cc3)cc2)[nH]1` [Example M17, methyl ((1S)-1-((2S)-2-(5-(4′-(2-((2S)-1-(N-(methoxycarbonyl)-L-alanyl)-2-pyrrolidinyl)-1H-imidazol-5-yl)-4-biphenylyl)-1H-imidazol-2-yl)-1-pyrrolidinyl)-1-methyl-2-oxoethyl)carbamate] and `COC(=O)N[C@H](C(=O)N1CCC[C@H]1c1ncc(-c2ccc(-c3ccc(-c4cnc([C@@H]5CCCN5C(=O)[C@@H](NC(=O)OC)[C@@H](C)O)[nH]4)cc3)cc2)[nH]1)[C@@H](C)O` [Example M15, methyl ((1S,2R)-2-hydroxy-1-(((2S)-2-(5-(4′-(2-((2S)-1-((2S,3R)-3-hydroxy-2-((methoxycarbonyl)amino)butanoyl)-2-pyrrolidinyl)-1H-imidazol-5-yl)-4-biphenylyl)-1H-imidazol-2-yl)-1-pyrrolidinyl)carbonyl)propyl)carbamate] fall in the same range of EC50: 100 to 999 nM for the first, 100 to 999 nM for the second.

First: COC(=O)N[C@@H](C(=O)N1CCC[C@H]1c1ncc(-c2ccc(-c3ccc(-c4cnc([C@@H]5CCCN5C(=O)CNC(C)=O)[nH]4)cc3)cc2)[nH]1)c1ccccc1 [Example 41, methyl ((1R)-2-((2S)-2-(5-(4′-(2-((2S)-1-(N-acetylglycyl)-2-pyrrolidinyl)-1H-imidazol-5-yl)-4-biphenylyl)-1H-imidazol-2-yl)-1-pyrrolidinyl)-2-oxo-1-phenylethyl)carbamate]
Second: COC(=O)N[C@@H](C(=O)N1CCC[C@H]1c1ncc(-c2ccc(-c3ccc(-c4cnc([C@@H]5CCCN5C(=O)[C@@H]5C[C@@H](F)CN5C)[nH]4)cc3)cc2)[nH]1)c1ccccc1 [Example 70, methyl ((1R)-2-((2S)-2-(5-(4′-(2-((2S)-1-((4R)-4-fluoro-1-methyl-L-prolyl)-2-pyrrolidinyl)-1H-imidazol-5-yl)-4-biphenylyl)-1H-imidazol-2-yl)-1-pyrrolidinyl)-2-oxo-1-phenylethyl)carbamate]
The EC50 of the first is lower: 0.001 to 0.999 nM for the first, 1 to 99 nM for the second. The first is the more potent here.

Compared with `COC(=O)N[C@H](C(=O)N1[C@H](c2ncc(-c3ccc(-c4ccc(-c5cnc([C@@H]6C[C@@H]7C[C@@H]7N6C(=O)[C@@H](NC(=O)OC)C(C)C)[nH]5)cc4)cc3)[nH]2)C[C@@H]2C[C@@H]21)C(C)C` [Example M122, methyl ((1S)-1-(((1S,3S,5S)-3-(5-(4′-(2-((1S,3S,5S)-2-((2S)-2-((methoxycarbonyl)amino)-3-methylbutanoyl)-2-azabicyclo[3.1.0]hex-3-yl)-1H-imidazol-5-yl)-4-biphenylyl)-1H-imidazol-2-yl)-2-azabicyclo[3.1.0]hex-2-yl)carbonyl)-2-methylpropyl)carbamate], `COC(=O)N[C@@H](C(=O)N1CCC[C@H]1c1ncc(-c2ccc(-c3ccc(-c4cnc([C@@H]5CCCN5C(=O)C5CCN(C(=O)OC(C)(C)C)CC5)[nH]4)cc3)cc2)[nH]1)c1ccccc1` [Example 84-36, tert-butyl 4-(((2S)-2-(5-(4′-(2-((2S)-1-((2R)-2-((methoxycarbonyl)amino)-2-phenylacetyl)-2-pyrrolidinyl)-1H-imidazol-5-yl)-4-biphenylyl)-1H-imidazol-2-yl)-1-pyrrolidinyl)carbonyl)-1-piperidinecarboxylate] is lower in EC50: 1 to 99 nM for the first, 0.001 to 0.999 nM for the second.

`O=C(CC1CC1)N1CCC[C@H]1c1ncc(-c2ccc(-c3ccc(-c4cnc([C@@H]5CCCN5C(=O)CC5CC5)[nH]4)cc3)cc2)[nH]1` [Example 12, 5,5′-(4,4′-biphenyldiyl)bis(2-((2S)-1-(cyclopropylacetyl)-2-pyrrolidinyl)-1H-imidazole)] and `CN(C)[C@@H](C(=O)N1CCC[C@H]1c1ncc(-c2ccc(-c3ccc(-c4cnc([C@@H]5CCCN5C(=O)[C@H]5CC[C@@H](NC(=O)OC(C)(C)C)CC5)[nH]4)cc3)cc2)[nH]1)c1ccccc1` [Example 94-33, tert-butyl (cis-4-(((2S)-2-(5-(4′-(2-((2S)-1-((2R)-2-(dimethylamino)-2-phenylacetyl)-2-pyrrolidinyl)-1H-imidazol-5-yl)-4-biphenylyl)-1H-imidazol-2-yl)-1-pyrrolidinyl)carbonyl)cyclohexyl)carbamate] fall in the same range of EC50: 1 to 99 nM for the first, 1 to 99 nM for the second.

`COc1ccc(-c2ccc(-c3cnc([C@@H]4CCCN4C(=O)[C@@H](c4ccccc4)N(C)C)[nH]3)cc2)cc1-c1c[nH]c([C@@H]2CCCN2C(=O)[C@@H](c2ccccc2)N(C)C)n1` [Example D33, (1R,1′R)-2,2′-((4-methoxy-3,4′-biphenyldiyl)bis(1H-imidazole-5,2-diyl(2S)-2,1-pyrrolidinediyl))bis (N,N-dimethyl-2-oxo-1-phenylethanamine)] and `CNC(=O)c1nc([C@@H]2CCCN2C(=O)[C@@H](c2ccccc2)N(C)C)[nH]c1-c1ccc(-c2ccc(-c3cnc([C@@H]4CCCN4C(=O)[C@@H](c4ccccc4)N(C)C)[nH]3)cc2)cc1` [Example J26] fall in the same range of EC50: 0.001 to 0.999 nM for the first, 0.001 to 0.999 nM for the second.

`CCN(CC)[C@@H](C(=O)N1CCC[C@H]1c1ncc(-c2ccc(-c3ccc(-c4cnc([C@@H]5CCCN5C(=O)[C@H](C)NC(=O)OC)[nH]4)c(F)c3)cc2)[nH]1)c1ccccc1` [Example D36, methyl ((1S)-2-((2S)-2-(5-(4′-(2-((2S)-1-((2R)-2-(diethylamino)-2-phenylacetyl)-2-pyrrolidinyl)-1H-imidazol-5-yl)-3-fluoro-4-biphenylyl)-1H-imidazol-2-yl)-1-pyrrolidinyl)-1-methyl-2-oxoethyl)carbamate] and `CCN(CC)[C@@H](C(=O)N1CCC[C@H]1c1ncc(-c2ccc(-c3ccc(-c4cnc([C@@H]5CCCN5C(=O)[C@H](Cc5cscn5)NC(=O)OC)[nH]4)cc3)cc2)[nH]1)c1ccccc1` [cj-80, methyl ((1S)-2-((2S)-2-(5-(4′-(2-((2S)-1-((2R)-2-(diethylamino)-2-phenylacetyl)-2-pyrrolidinyl)-1H-imidazol-5-yl)-4-biphenylyl)-1H-imidazol-2-yl)-1-pyrrolidinyl)-2-oxo-1-(1,3-thiazol-4-ylmethyl)ethyl)carbamate] fall in the same range of EC50: 0.001 to 0.999 nM for the first, 0.001 to 0.999 nM for the second.

`O=C([C@@H](c1ccccc1)N1CCCCC1)N1CC(F)(F)C[C@H]1c1nc(-c2ccc(-c3ccc(-c4cnc([C@@H]5CCCN5C(=O)[C@@H](c5ccccc5)N5CCCCC5)[nH]4)cc3)cc2)c[nH]1` [Example 24-10, 1-((R)-2-((2S)-2-(4-(4′-(2-((2S)-4,4-difluoro-1-((2R)-2-phenyl-2-(1-piperidinyl)acetyl)-2-pyrrolidinyl)-1H-imidazol-4-yl)-4-biphenylyl)-1H-imidazol-2-yl)-1-pyrrolidinyl)-2-oxo-1-phenylethyl)piperidine] and `O=C(C(c1ccccc1)N1CCC(O)CC1)N1CCC[C@H]1c1ncc(-c2ccc(-c3ccc(-c4cnc([C@@H]5CCCN5C(=O)[C@@H](c5ccccc5)N5CCCC5)[nH]4)cc3)cc2)[nH]1` (stereo partly drawn) [Example 97, 1-(2-oxo-1-phenyl-2-((2S)-2-(5-(4′-(2-((2S)-1-((2R)-2-phenyl-2-(1-pyrrolidinyl)acetyl)-2-pyrrolidinyl)-1H-imidazol-5-yl)-4-biphenylyl)-1H-imidazol-2-yl)-1-pyrrolidinyl)ethyl)-4-piperidinol] fall in the same range of EC50: 0.001 to 0.999 nM for the first, 0.001 to 0.999 nM for the second.

`COC(=O)N[C@@H](C(=O)N1CCC[C@H]1c1ncc(-c2ccc(-c3ccc(-c4cnc([C@@H]5CCCN5C(=O)[C@H](NC(=O)OC)c5ccccc5)[nH]4)cc3C)c(C)c2)[nH]1)c1ccccc1` [Example 122] gave an EC50 of 0.001 to 0.999 nM.

From patent US8574563B2 (Bristol-Myers Squibb Company, priority 2006, dated 2013)
